This note sets out measurements from patent US4778792A, “Use of 7-acyl benzoxazinones and their derivatives in treating atheromatous disorders” (Laboratories Negma, priority 1985, dated 1988).

The data set is described as follows: Normolipemic activity, lipid balance in normal or hypercholesterolemic mice. The note with it: per os, 50 mg/kg daily for 15 days, with respect to a control group; for change in vivo at 50 mg/kg: Mus musculus, po, 360 h. It is filed as in vivo. The procedure:
Activity of selected molecules by the Triton test in mice rendered hypercholesterolemic and normal mice: study of the lipid parameters, of the lipoprotein and apoprotein composition.
Preliminary study on the weight of the liver and histological examination of the hepatic tissue.
3.2 The normolipemic activity has also been established in OF normal mice or rendered hypercholesterolemic. The products tested were administered per os daily for 15 days at the dose of 50 mg/kg.
All the compounds were administered orally at the rate of 50 mg/kg.

The mark [1] stands for this setting: read-out: CT (Total cholesterol) %.
Setting [2] is: read-out: HDLC (Cholesterol fraction contained in the HDLs) %.
Setting [3] is: read-out: HDLC/TC (ratio between the cholesterol contained in the HDLs and the total cholesterol) %.

Molecules are shown by their SMILES. Structures can show the parent of a compound that is named as a salt. Where two headings read alike, the source gives them in different places.

Regarding `CN1C(=O)C(C)(C)Oc2cc(C(=O)CCN3CCOCC3)ccc21` [NM 7, 7[3-morpholinopropionyl[2'2'4 trimethylbenzoxazinone, hydrochloride], the “Liver weight / Body weight” value is on record as -10%. The change in vivo at 50 mg/kg under setting [1] worked out at 2%. In addition, the change in vivo at 50 mg/kg under setting [2] turned out to be 5%. Besides, the change in vivo at 50 mg/kg under setting [3] was 14%. Moreover, the change in vivo at 50 mg/kg (read-out: Phospho Lipids) was found to be 5%. Also, the change in vivo at 50 mg/kg (read-out: TG (Triglycerids) %) amounted to 5%.

For the compound `CN1C(=O)C(C)(C)Oc2cc(C(=O)CCN3CCN(c4cccc(C(F)(F)F)c4)CC3)ccc21` [NM 8, 3(4-Metatrifluoromethylphenylpiperazino)7-propionyl 2,2,4 trimethyl benzoxazinone, hydrochloride], the “Liver weight / Body weight” value is listed as -15%. The change in vivo at 50 mg/kg under setting [1] worked out at 8%. Besides, under setting [2], the change in vivo at 50 mg/kg came to 10%. Further, under setting [3], the change in vivo at 50 mg/kg came out at 11%. Besides, the change in vivo at 50 mg/kg (read-out: Phospho Lipids) amounted to 8%. The change in vivo at 50 mg/kg (read-out: TG (Triglycerids) %) is 23%.

Regarding `CN1C(=O)C(C)(C)Oc2cc(C(=O)c3ccc(Cl)cc3)ccc21` [MZ 125, 7-(4-Chlorobenzoyl)2,2,4-trimethyl benzoxazinone], the “Liver weight / Body weight” value is on record as “+17%”. In addition, the change in vivo at 50 mg/kg under setting [1] was -25%. Also, under setting [2], the change in vivo at 50 mg/kg came to 1%. In addition, the change in vivo at 50 mg/kg under setting [3] turned out to be 18%. Besides, the change in vivo at 50 mg/kg (read-out: Phospho Lipids) was 15%. Also, the change in vivo at 50 mg/kg (read-out: TG (Triglycerids) %) amounted to 19%.

Turning to `CC(C)OC(=O)C(C)(C)Oc1ccc(C(=O)c2ccc(Cl)cc2)cc1` [Fenofibrate, fenofibrate, reference compound], the “Liver weight / Body weight” value is reported as “+55%”. For the same compound, the change in vivo at 50 mg/kg under setting [1] is -30%. Further, the change in vivo at 50 mg/kg under setting [2] is -11%. Besides, the change in vivo at 50 mg/kg under setting [3] came out at 30%. In addition, the change in vivo at 50 mg/kg (read-out: Phospho Lipids) is 18%. For the same compound, the change in vivo at 50 mg/kg (read-out: TG (Triglycerids) %) was found to be 24%.

Turning to `CCCC(=O)c1ccc2c(c1)OC(C)(C)C(=O)N2C` [MZ 86, 7-Butyryl 2,2,4-trimethyl benzoxazinone], the “Liver weight / Body weight” value is “+2%”. Besides, the change in vivo at 50 mg/kg under setting [1] was -38%. The change in vivo at 50 mg/kg under setting [2] amounted to 18%. The change in vivo at 50 mg/kg under setting [3] turned out to be 44%. In addition, under “read-out: Phospho Lipids”, the change in vivo at 50 mg/kg stood at 0%. Besides, the change in vivo at 50 mg/kg (read-out: TG (Triglycerids) %) is -12%.

`CC1Oc2cc(C(=O)C=Cc3ccc(Cl)cc3)ccc2N(C)C1=O` (centres unmarked) [MZ 134, 7(4-Chlorocinnamoyl)2,4 dimethyl benzoxazinone]: the “Liver weight / Body weight” value is recorded as “+5%”. Also, the change in vivo at 50 mg/kg under setting [2] amounted to 5%. Under setting [3], the change in vivo at 50 mg/kg came to 10%. Besides, the change in vivo at 50 mg/kg (read-out: Phospho Lipids) was found to be 11%. The change in vivo at 50 mg/kg (read-out: TG (Triglycerids) %) is -9%.

Consider `CN1C(=O)C(C)(C)Oc2cc(C(=O)c3ccccc3)ccc21` [MZ 119, 7-Benzoyl 2,2,4 trimethyl benzoxazinone], for which the “Liver weight / Body weight” value is given as “+12%”. Further, the change in vivo at 50 mg/kg under setting [1] is -30%. Besides, the change in vivo at 50 mg/kg under setting [2] is -6%. Under setting [3], the change in vivo at 50 mg/kg was determined as 21%. The change in vivo at 50 mg/kg (read-out: Phospho Lipids) came to 15%. Moreover, the change in vivo at 50 mg/kg (read-out: TG (Triglycerids) %) came out at 21%.

As to `CN1C(=O)C(C)(C)Oc2cc(C(=O)CCCN3CCN(c4ccc(F)cc4)CC3)ccc21` [MZ 153, 7[4(4p-fluorophenylpiperazino)butyryl]2,2,4-trimethyl benzoxazinone], the “Liver weight / Body weight” value is listed as “+4%”. For the same compound, the change in vivo at 50 mg/kg under setting [1] is -10%. Besides, the change in vivo at 50 mg/kg under setting [2] is 25%. Moreover, under setting [3], the change in vivo at 50 mg/kg was 45%. Further, under “read-out: Phospho Lipids”, the change in vivo at 50 mg/kg came to 19%. For the same compound, the change in vivo at 50 mg/kg (read-out: TG (Triglycerids) %) was 18%.

As to `CCCC(=O)c1ccc2c(c1)OC(C)(C)C(=O)N2CCC(=O)O` [NM 11, 7-Butyryl 4-β carboxyethyl 2,2-dimethyl benzoxazinone], the “Liver weight / Body weight” value worked out at 0%. In addition, the change in vivo at 50 mg/kg under setting [1] was -37%. The change in vivo at 50 mg/kg under setting [2] was found to be 7%. Moreover, under setting [3], the change in vivo at 50 mg/kg is 43%. Also, the change in vivo at 50 mg/kg (read-out: Phospho Lipids) amounted to 16%. In addition, where the note is “read-out: TG (Triglycerids) %”, the change in vivo at 50 mg/kg is -8%.

Regarding `CC1Oc2cc(C(=O)c3ccccc3)ccc2NC1=O` (centres unmarked) [MZ 115, 7-Benzoyl 2-methyl benzoxazinone], the “Liver weight / Body weight” value was “+9%”. For the same compound, the change in vivo at 50 mg/kg under setting [1] was -32%. Moreover, the change in vivo at 50 mg/kg under setting [2] is -5%. Moreover, the change in vivo at 50 mg/kg under setting [3] stood at 17%. In addition, the change in vivo at 50 mg/kg (read-out: Phospho Lipids) was -9%. Further, the change in vivo at 50 mg/kg (read-out: TG (Triglycerids) %) worked out at 18%.

Consider `CCCC(=O)c1ccc2c(c1)OC(C)(C)C(=O)N2` [MZ 95, 7-Butyryl 2,2-dimethyl benzoxazinone], for which the “Liver weight / Body weight” value is “+6%”. Also, the change in vivo at 50 mg/kg under setting [1] is -21%. Further, the change in vivo at 50 mg/kg under setting [2] was determined as 0%. Further, under setting [3], the change in vivo at 50 mg/kg was determined as 25%. Further, the change in vivo at 50 mg/kg (read-out: Phospho Lipids) is 5%. Moreover, the change in vivo at 50 mg/kg (read-out: TG (Triglycerids) %) is -5%.
